# In US11754555B2, “Pad for immunochromatographic device and immunochromatographic device, immunochromatographic kit and immunochromatographic detection method using pad” (TANAKA KIKINZOKU KOGYO K.K., priority 2018, dated 2023):
# Legend:
# [1] = test system: inactivated Group A β-hemolytic streptococcus; test: Color intensity of red line on detection part measured with immunochromatoreader
# Experimental: (§1) The immunochromatographic device and the analyte dilution solution produced above were used, and a sample obtained by adding inactivated Group A β-hemolytic streptococcus at 5×10^5 org/mL was used as a positive analyte sample.
# The color intensity of the red line on the detection part (4) five minutes after starting development was measured with an immunochromatoreader (manufactured by Hamamatsu Photonics K.K.). As a result, the color intensity was 83.7 mAbs.
# An immunochromatographic kit was produced in the same manner as in Example 1 except that the sample droplet receiving member (1), the acid anhydride containing member (7), the labeling substance retaining member (2), the chromatography medium member (3) having the detection part (4) and the absorption member (5) were pasted to a base material composed of a backing sheet (6) in a manner that the members were linked in this order along the direction of sample development (the order shown in FIG. 1), and the color intensity was measured with an immunochromatoreader (manufactured by Hamamatsu Photonics K.K.). As a result, the color intensity after five minutes was 48.1 mAbs.
# An immunochromatographic kit was produced in the same manner as in Example 3 except that “malic acid” was used instead of “bicyclo[2,2,2]oct-7-ene-2,3,5,6-tetracarboxylic dianhydride”, which is the acid anhydride, and the color intensity after five minutes was measured with an immunochromatoreader (manufactured by Hamamatsu Photonics K.K.). As a result, the color intensity was 4.1 mAbs.
# [2] = test system: inactivated Group A β-hemolytic streptococcus; test: Visual evaluation of red line on detection part of immunochromatographic device; settings: for Result of Visual Evaluation (After Storage at 50° C. for 24 Hours): device stored at 50° C. for 24 hours, then positive analyte sample 5×10^5 org/mL, 5 minutes; for Result of Visual Evaluation (After 5 Minutes): positive analyte sample 5×10^5 org/mL, 150 μL, member order of FIG. 3, acid content per pad as in Table 1
# Experimental: as §1
# The analyte sample in an amount of 150 μL was dropped to the sample droplet receiving part of the device and developed, and a visual evaluation was made after 5 minutes. Any of the following marks was given: “+” (positive) when the red line on the detection part (4) could be visually observed; “++” (strong positive) when the red line could be visually observed clearly; “±” (weak positive) when a light red line could be visually observed; and “−” (negative) when the red line could not be visually observed.
# Separately from the above evaluation, the immunochromatographic device produced above were stored at 50° C. for 24 hours, and then the measurement and the visual evaluation were conducted. […]
# Immunochromatographic kits were produced and measurement was conducted in the same manners as in Example 1 except that the kind of the acid anhydride in Example 1 was changed to those shown in Table 1.
# [3] = Sublimation at 25° C. at 20 Pa (weight change after 12 hours under reduced pressure); assay type: physicochemical; settings: 1 g acid, reduced pressure 25° C., weight change within or exceeding 5%
# Experimental: Whether the acids used in the Examples and the Comparative Examples sublimate at 25° C. at 20 Pa was examined by the following method. First, 1 g of an acid was measured in a glass vial, and the weight was measured after subjecting the acid to reduced pressure at 25° C. at 20 Pa for 12 hours.
# [4] = five minutes after starting development, member order of FIG. 3 (acid-containing member downstream of labeling member)
Compound,"color intensity of the red line on the detection part (4) [1, 4] [mAbs]",Result of Visual Evaluation (After Storage at 50° C. for 24 Hours) [2],Result of Visual Evaluation (After 5 Minutes) [2],"color intensity of the red line on the detection part (4) ([1]; after five minutes, member order of FIG. 1 (acid anhydride member upstream of labeling member)) [mAbs]",Sublimation at 25° C. at 20 Pa [3]
"O=C(O)CC(O)C(=O)O (stereo not drawn) [compound 3, malic acid]",4.1,−,−,,
"O=C1OC(=O)C2C3C=CC(C12)C1C(=O)OC(=O)C31 (stereo not drawn) [Example 1, bicyclo[2,2,2]oct-7-ene-2,3,5,6-tetracarboxylic dianhydride]",83.7,++,++,48.1,A (“A” indicates that the acid did not sublimate)
"CCCCCCCC/C=C\CCCCCCCC(=O)O [compound 6, oleic acid]",,−,−,,
"O=C1CC(C2CC3C(=O)OC(=O)C3c3ccccc32)C(=O)O1 (stereo not drawn) [Example 6, 4-(2,5-dioxotetrahydrofuran-3-yl)-1,2,3,4-tetrahydronaphthalene-1,2-dicarboxylic anhydride]",,++,++,,A (“A” indicates that the acid did not sublimate)
"N[C@@H](CCC(=O)O)C(=O)O [compound 7, glutamic acid]",,−,−,,
"O=C1OC(=O)[C@@H]2CC=CC[C@H]12 [Comparative Example 9, cis-4-cyclohexene-1,2-dicarboxylic anhydride]",,−,+,,A (“A” indicates that the acid did not sublimate)
"O=C(ON1C(=O)CCC1=O)c1ccccc1 [Comparative Example 1, N-(benzoyloxy)succinimide]",,−,−,,
"O=c1oc(=O)c2cc3c(=O)oc(=O)c3cc12 [Example 2, pyromellitic anhydride]",,++,++,,A (“A” indicates that the acid did not sublimate)
"O=C1CC(c2ccccc2)C(=O)O1 (stereo not drawn) [compound 8, phenylsussinic acid anhydride]",,−,+,,A (“A” indicates that the acid did not sublimate)
"C=C(CC(=O)O)C(=O)O [compound 4, itaconic acid]",,−,−,,
"O=C1OC(=O)C2CC3C(=O)OC(=O)C3CC12 (stereo not drawn) [Example 5, 1,2,4,5-cyclohexanetetracarboxylic dianhydride]",,++,++,,A (“A” indicates that the acid did not sublimate)
octadecenylsuccinic anhydride [Reference Example 2],,±,±,,A (“A” indicates that the acid did not sublimate)
"CC#Cc1ccc2c(c1)C(=O)OC2=O [Example 3, 4-(1-propynyl)phthalic anhydride]",,+,+,,A (“A” indicates that the acid did not sublimate)
"O=C(O)CN(CCO)CCO [compound 5, N,N-bis(2-hydroxyethyl)glycine]",,−,−,,
"O=C1CCC(=O)O1 [compound 2, succinic anhydride]",,−,++,,B (“B” indicates that the acid sublimated)
"CC(=O)Nc1cccc2c1C(=O)OC2=O [Example 4, 3-acetamidophthalic anhydride]",,+,+,,A (“A” indicates that the acid did not sublimate)
